Results taken from ChEMBL document CHEMBL3044814, “Seasonal changes in chemical composition of epicuticular waxes from the leaves of Baccharis linearis” (1999).
In brackets after ≈: the same amount, converted by molar mass.

Tests used:
[1] = system: Artemia salina; assay: Toxicity against Artemia salina (brine shrimp); format: functional
[2] = system: Spodoptera littoralis; assay: Antifeedant activity against fifth-instar larvae of Spodoptera littoralis at 10 ug/cm'2 by disk-choice assay; format: functional

CC(=O)Oc1ccc(/C=C/C(=O)O)cc1CC=C(C)C
LC50 [1]: < 50 µg/mL

CC(=O)OC/C=C(/CC[C@@]1(C)[C@H](C)CC[C@@]2(CO)C(COC(C)=O)=CCC[C@@H]21)COC(C)=O
FR50 [2]: 0.99 | LC50 [1]: > 100 µg/mL

COc1cc(-c2oc3cc(O)cc(O)c3c(=O)c2OC)ccc1O [3,3'-O-DIMETHYLQUERCETIN]
LC50 [1]: ≤ 10 µg/mL

COc1c(-c2ccc(O)c(O)c2)oc2cc(O)cc(O)c2c1=O [3-O-METHYLQUERCETIN]
LC50 [1]: 10 µg/mL (≈ 31.6 µM)

C=C(COC(C)=O)C1Cc2cc(O)c(C(C)=O)cc2O1 (centres undefined) [ACETYLATED DIHYDROBENZOFURAN]
FR50 [2]: 0.75 | LC50 [1]: ≤ 10 µg/mL

CC1(C)CC[C@]2(CO)CC[C@]3(C)C(=CC[C@@H]4[C@@]5(C)CC[C@H](O)C(C)(C)[C@@H]5CC[C@]43C)[C@@H]2C1 [ERYTHRODIOL]
FR50 [2]: 0.88 | LC50 [1]: 50 µg/mL (≈ 113 µM)

COc1c(-c2ccc(O)cc2)oc2cc(O)cc(O)c2c1=O [ISOKAEMPFERIDE]
LC50 [1]: ≤ 10 µg/mL

CCCC#CC#C/C=C/C(=O)OC [LACHNOPHYLLUM ESTER]
FR50 [2]: 0.31 | LC50 [1]: 5 µg/mL (≈ 28.4 µM)

CC1(C)CC[C@]2(C(=O)O)CC[C@]3(C)C(=CC[C@@H]4[C@@]5(C)C[C@@H](O)[C@H](O)C(C)(C)[C@@H]5CC[C@]43C)[C@@H]2C1 [MASLINIC ACID]
FR50 [2]: 1.34 | LC50 [1]: 20.2 µg/mL (≈ 42.7 µM)

CC1(C)CC[C@]2(C(=O)O)CC[C@]3(C)C(=CC[C@@H]4[C@@]5(C)CC[C@H](O)C(C)(C)[C@@H]5CC[C@]43C)[C@@H]2C1 [OLEANOLIC_ACID]
FR50 [2]: 1.34 | LC50 [1]: 10 µg/mL (≈ 21.9 µM)

C=C1CC[C@@H]2[C@H]([C@H]3[C@H]1CC[C@]3(C)O)C2(C)C [SPATHULENOL]
LC50 [1]: < 3 µg/mL

COC(=O)/C=C/c1ccc2c(c1)C=CC(C)(C)O2 [WERNERIACHROMENE]
FR50 [2]: 0.2 | LC50 [1]: < 3 µg/mL
